Measured values as given in ChEMBL document CHEMBL1132078, “Bicyclo[3.2.1]octanes: synthesis and inhibition of binding at the dopamine and serotonin transporters” (Bioorg Med Chem Lett, 1999).

Experiments:
[1] = molecular target: Sodium-dependent dopamine transporter (Macaca fascicularis, UniProt Q9GJT6); experiment: Inhibition of [3H]WIN-35428 binding to dopamine transporter (DAT) of cynomolgus monkey caudate-putamen; type: tissue-based
[2] = molecular target: Sodium-dependent serotonin transporter; experiment: Inhibition of [3H]citalopram binding to serotonin transporter (SERT) of cynomolgus monkey caudate-putamen; type: tissue-based

Sequence of Sodium-dependent dopamine transporter (Q9GJT6 whole entry): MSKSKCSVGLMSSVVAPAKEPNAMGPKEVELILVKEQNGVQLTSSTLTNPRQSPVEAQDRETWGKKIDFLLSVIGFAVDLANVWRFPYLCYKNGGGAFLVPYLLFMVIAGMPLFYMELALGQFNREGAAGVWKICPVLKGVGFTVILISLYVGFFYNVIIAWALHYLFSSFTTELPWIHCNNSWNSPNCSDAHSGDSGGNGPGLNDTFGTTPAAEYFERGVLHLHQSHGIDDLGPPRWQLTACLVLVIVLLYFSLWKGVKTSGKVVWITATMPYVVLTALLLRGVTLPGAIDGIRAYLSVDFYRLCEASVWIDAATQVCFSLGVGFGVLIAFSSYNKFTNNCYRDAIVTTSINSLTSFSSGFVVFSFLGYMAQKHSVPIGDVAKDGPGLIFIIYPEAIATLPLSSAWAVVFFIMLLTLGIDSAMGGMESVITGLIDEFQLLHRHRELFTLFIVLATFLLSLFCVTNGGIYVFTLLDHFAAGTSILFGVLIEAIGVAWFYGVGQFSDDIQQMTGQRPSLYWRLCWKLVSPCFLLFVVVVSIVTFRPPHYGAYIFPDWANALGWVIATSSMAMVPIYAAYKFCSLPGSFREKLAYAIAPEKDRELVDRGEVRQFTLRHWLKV

COC(=O)C1C2CCC(CC1c1ccc(Cl)c(Cl)c1)O2 (stereo in doubt; 7b (R))
IC50 [1]: 2.3 nM
IC50 [2]: 30.3 nM

COC(=O)C1C(c2ccc(Cl)c(Cl)c2)CC2CCC1N2C (stereo not given)
IC50 [1]: 1.1 nM
IC50 [2]: 27.6 nM

COC(=O)C1=C(c2ccc(Cl)c(Cl)c2)CC2CCC1O2 (stereo in doubt; 5b (R))
IC50 [1]: 4.2 nM
IC50 [2]: 2120 nM

COC(=O)C1C2CCC(CC1c1ccc(Cl)c(Cl)c1)O2 (racemic; form 1)
IC50 [1]: 3.4 nM

COC(=O)C1=C(c2ccc(Cl)c(Cl)c2)CC2CCC1O2 (stereo in doubt; 5b (R/S))
IC50 [1]: 12.8 nM
IC50 [2]: 1960 nM

COC(=O)C1=C(c2ccc(Cl)c(Cl)c2)CC2CCC1C2 (racemic)
IC50 [1]: 7.1 nM
IC50 [2]: 5160 nM

COC(=O)C1C2CCC(CC1c1ccc(Cl)c(Cl)c1)O2 (racemic; form 2)
IC50 [1]: 3.1 nM

COC(=O)C1=C(c2ccc(Cl)c(Cl)c2)CC2CCC1N2C (stereo not given)
IC50 [1]: 1.2 nM
IC50 [2]: 867 nM

COC(=O)C1C2CCC(C2)CC1c1ccc(Cl)c(Cl)c1 (racemic)
IC50 [1]: 14.3 nM
IC50 [2]: 180 nM

COC(=O)C1C2CCC(C2)CC1c1ccc(Cl)c(Cl)c1 (stereo in doubt; 6a (R/S))
IC50 [1]: 9.6 nM
IC50 [2]: 33.4 nM

COC(=O)C1C2CCC(CC1c1ccc(Cl)c(Cl)c1)N2 (stereo not given)
IC50 [1]: 0.7 nM
IC50 [2]: 1.24 nM
